From patent US11919856B2, “Compounds” (UCL BUSINESS LTD, priority 2018, dated 2024)
Entries after “also recorded” stand apart in the source; their conditions may differ.

Assays:
human serum albumin = human serum albumin (Homo sapiens, UniProt P02768); assay: Binding to human serum albumin; assay type: in vitro ADME
Z α1-antitrypsin polymer = assay: Liver polymer levels in Z α1-antitrypsin transgenic mice (2C1 staining); assay type: in vivo, human; details: 100 mg/kg three times a day for 20 days
Procedure: Since Compound 1 blocks polymer formation in cells the effect of dosing Compound 1 on liver polymer levels was explored. It has recently been shown that Z α1-antitrypsin polymers formed in CHO-TET-ON-Z-A1AT and ZZ-iPSC-hepatocytes are cleared from cells with a t½ of between 8 and 48 hours depending on whether they partition to the soluble or insoluble fractions. […] Compound 1 was therefore dosed at 100 mg/kg three times a day as above for 20 days. On days 15 and 21 of dosing, changes of monomeric Z α1-antitrypsin plasma samples were determined as above, and increases of 7- to 8-fold over the pre-dosing baseline levels were observed, similar to the effect in animals dosed for 3 or 6 days, consistent with sustained target engagement through the dosing period. Liver polymer levels were investigated by staining with 2C1 anti-polymer monoclonal antibody and were scored blinded either by a pathologist or by quantification using an algorithm to measure all areas of positive staining. There was no difference observed in total liver polymer load via manual or quantitative scoring.
To investigate whether there is a subpopulation of polymer in the liver that was responding to compound over the time frame of the experiment, areas of staining were divided into low, medium and high intensity regions and scored separately for response to compound. […]

Z α1-antitrypsin [1] = target: T1, Z α1-antitrypsin (Homo sapiens, UniProt P01009, E366K/V237A); assay: Secretion of Z α1-antitrypsin from CHO-TET-ON-Z-A1AT cells (immunoassay of supernatant); assay type: cell-based; parameters: expressed in transfected cells; host or cells: CHO Tet-On (CHO-K1) cells, doxycycline-induced
T1 sequence (P01009 25-418 V237A/E366K): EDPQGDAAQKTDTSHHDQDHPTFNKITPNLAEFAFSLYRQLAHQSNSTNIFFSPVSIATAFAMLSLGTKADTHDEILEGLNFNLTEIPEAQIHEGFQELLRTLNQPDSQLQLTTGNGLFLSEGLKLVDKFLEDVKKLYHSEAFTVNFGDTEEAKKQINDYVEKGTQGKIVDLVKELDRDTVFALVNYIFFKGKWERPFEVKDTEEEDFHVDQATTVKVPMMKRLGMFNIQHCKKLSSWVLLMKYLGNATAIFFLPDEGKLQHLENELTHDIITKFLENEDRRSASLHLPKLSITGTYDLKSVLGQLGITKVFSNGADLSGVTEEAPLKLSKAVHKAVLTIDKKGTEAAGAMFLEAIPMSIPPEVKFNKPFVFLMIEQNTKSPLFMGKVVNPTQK
Procedure: (§1) CHO Tet-On cells that conditionally express Z α1-antitrypsin (Ordóñez A et al. Hepatology 2013; 57(5):2049-60.) were simultaneously treated with 0.5 μg/mL […] and various concentrations of compounds for 48 hours in 6 well plates. Cells without doxycycline or treated with 1% v/v DMSO acted as controls. The cells were lysed and intracellular Z α1-antitrypsin polymer was evaluated by ELISA sandwich with the 2C1 monoclonal antibody (Miranda et al. Hepatology. 2010; 52:1078-88). Newly synthesised α1-antitrypsin was evaluated by growing cells induced to express Z α1-antitrypsin in DMEM without methionine (Met) and cysteine (Cys) for 1 h and then labelling with 1.3 MBq of ^35S-Met/Cys for 15 min. The cells were then rinsed and incubated in chase medium containing an excess of unlabeled Met and Cys for 0, 2 and 6 h. After the chase period, the medium was collected and cells were harvested. α1-Antitrypsin from the medium and cell lysates was immunoprecipitated with a polyclonal α1-antitrypsin antibody or the 2C1 monoclonal antibody that detects polymers by splitting each sample in two equal parts. Radiolabelled proteins were re-suspended in SDS loading buffer, boiled for 5 min, separated by 10% w/v acrylamide SDS-PAGE, and quantified by autoradiography.
(§2) Its ability to block Z α1-antitrypsin polymerisation in the ER during folding was assessed by adding Compound 1 to CHO-TET-ON-Z-A1AT cells (Ordóñez et al. Hepatology. 2013; 57(5):2049-60) with simultaneous induction of Z α1-antitrypsin expression using doxycycline. […] To investigate whether in addition to blocking polymerisation, Compound 1 was also able to increase secretion of Z α1-antitrypsin, Z α1-antitrypsin expression was induced in CHO-TET-ON-Z-A1AT cells, Compound 1 was added, and the total Z α1-antitrypsin in the supernatant was measured by immunoassay after 6 hours.

[2] = Panel of in vitro assays for off-targets predictive of safety liabilities
From the text: In order to investigate suitability of Compound 1 for progression into in vivo studies and the potential for taking forward as a clinical candidate for testing in human, Compound 1 was profiled against a panel of in vitro assays for off-targets considered predictive of potential safety liabilities. […] The measured potency of these marginal activities were at least 10-fold below the cellular activity of Compound 1 at blocking Z α1-antitrypsin polymerisation (pEC50 6.3). Loss of inhibitory activity represents a means by which possible off-target engagement with other serpins can be evaluated. However in contrast to α1-antitrypsin upon incubation with 50 μM Compound 1 the inhibitory activity of the homologues antithrombin, neuroserpin and antichymotrypsin was not affected.

Z α1-antitrypsin [3] = target: T1, Z α1-antitrypsin; assay: Intracellular Z α1-antitrypsin polymer formation in CHO-TET-ON-Z-A1AT cells (2C1 antibody); assay type: cell-based; parameters: expressed in transfected cells; host or cells: CHO Tet-On (CHO-K1) cells, doxycycline-induced
Procedure: as §1
CHO-K1 cells were incubated with/without doxycycline to express α1-antitrypsin and with or without the small molecule of interest, fixed with 3.7% v/v formaldehyde in PBS for 15 min, permeabilised with 0.1% v/v Triton X-100 in PBS and then blocked with 10% v/v FBS in PBS for 30 min. Cells were labelled with a rabbit polyclonal antibody to total α1-antitrypsin or the 2C1 monoclonal antibody that detects polymers followed by Texan red conjugated anti-rabbit or FITC labelled anti-mouse secondary antibodies respectively. Cells were imaged using an Axiovert 200 widefield fluorescence microscope (Carl Zeiss Microimaging Inc., Thornwood, NY).
as §2

M α1-antitrypsin = target: T2, M α1-antitrypsin (Homo sapiens, UniProt P01009); assay: Stoichiometry of inhibition against chymotrypsin, M α1-antitrypsin; assay type: biochemical; details: M α1-antitrypsin pre-incubated with compound
T2 construct: Alpha1-antitrypsin was purified from the plasma of ZZ and MM α1-antitrypsin homozygotes; from tissue; host or cells: plasma of MM homozygotes
T2 sequence (P01009 25-418): as the sequence (P01009 25-418 V237A/E366K) above, with A213V, K342E counted along it
Procedure: Mutations that interfere with the opening of […] or that perturb its interaction with the N-terminal portion of the reactive centre loop alter the ability of serpins to inhibit target proteases. The stoichiometry of inhibition (SI) was determined for M and Z α1-antitrypsin in discontinuous experiments against a model target protease, chymotrypsin. The pre-incubation of both variants with Compound 1 led to a >98% loss of protease inhibitory activity. […] To investigate whether this activity was consistent with action as a chemical chaperone, M and Z α1-antitrypsin were unfolded in vitro into 6 M guanidine hydrochloride, and rapidly refolded by snap dilution into denaturant-free buffer in the presence or absence of Compound 1.

Sequence of human serum albumin (P02768 25-609): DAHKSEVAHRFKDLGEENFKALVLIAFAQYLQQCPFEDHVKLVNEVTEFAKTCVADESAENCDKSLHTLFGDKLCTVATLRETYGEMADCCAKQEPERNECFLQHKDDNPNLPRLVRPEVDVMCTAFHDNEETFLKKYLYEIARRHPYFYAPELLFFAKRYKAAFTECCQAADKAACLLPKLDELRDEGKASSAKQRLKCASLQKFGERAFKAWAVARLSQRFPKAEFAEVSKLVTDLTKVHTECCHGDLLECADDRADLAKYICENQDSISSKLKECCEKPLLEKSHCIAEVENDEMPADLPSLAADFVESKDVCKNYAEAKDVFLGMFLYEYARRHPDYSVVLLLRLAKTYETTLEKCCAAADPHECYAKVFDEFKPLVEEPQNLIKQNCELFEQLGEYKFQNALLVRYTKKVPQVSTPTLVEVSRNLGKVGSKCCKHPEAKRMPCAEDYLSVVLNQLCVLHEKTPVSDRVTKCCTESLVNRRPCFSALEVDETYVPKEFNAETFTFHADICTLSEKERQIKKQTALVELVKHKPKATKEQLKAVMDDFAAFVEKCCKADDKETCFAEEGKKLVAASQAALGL

Structure (SMILES): CCC[C@@H](NC(=O)c1cccc2c1CC(=O)N2)[C@@H](O)c1cccc(F)c1C [Compound 1, N-[(1S,2R)-1-(3-fluoro-2-methylphenyl)-1-hydroxypentan-2-yl]-2-oxo-2,3-dihydro-1H-indole-4-carboxamide]
- binding to human serum albumin (human serum albumin): 84.2%
- liver polymer staining in low, medium and high intensity regions (Z α1-antitrypsin polymer): No effect
- total liver polymer load (Z α1-antitrypsin polymer; manual or quantitative scoring): no difference; also recorded: no reduction
- EC50 (Z α1-antitrypsin [1]; CHO-TET-ON-Z-A1AT cells, after 6 hours, read-out: pEC50, secretion of Z α1-antitrypsin (converted)): 501 nM
- increase of secreted levels of Z α1-antitrypsin (Z α1-antitrypsin [1]; CHO-TET-ON-Z-A1AT cells, supernatant after 6 hours, compared to vehicle control): approximately 3 fold
- EC50 (Z α1-antitrypsin [1]; cellular secretion assay, read-out: EC50 measured for secretion of Z α1-antitrypsin): ~300 nM
- activity against off-target panel [2]: inactive against the majority of these targets
- marginal activities in off-target panel [2]: low level of activity close to the lower limit of sensitivity in 16 assays
- potency of marginal off-target activities below cellular activity ([2]; relative to cellular activity at blocking Z α1-antitrypsin polymerisation): at least 10 fold
- polymer formation in Z α1-antitrypsin expressing cells (Z α1-antitrypsin [3]; 10 μM, CHO-TET-ON-Z-A1AT cells, tunicamycin experiment): completely abrogated
- IC50 (Z α1-antitrypsin [3]; CHO-TET-ON-Z-A1AT cells, doxycycline induction, 2C1 antibody, read-out: pIC50, intracellular formation of Z α1-antitrypsin polymers (converted)): 501 nM
- intracellular formation of Z α1-antitrypsin polymers (Z α1-antitrypsin [3]; CHO-TET-ON-Z-A1AT cells, in comparison with controls): completely blocked
- EC50 (Z α1-antitrypsin [3]; read-out: cellular activity at blocking Z α1-antitrypsin polymerisation (pEC50) (converted)): 501 nM
- loss of protease inhibitory activity (M α1-antitrypsin): > 98%
